How the values were obtained:
Assay type in all cases: biochemical
[1] = target: CDK9/CyclinT1 (Homo sapiens (Human), UniProt P50750); assay: CDK9/CyclinT1 kinase inhibitory activity (Caliper mobility shift); settings: read-out: CDK9/Cyclin T1 IC50
[2] = target: CDK7/CyclinH/MAT1 (Homo sapiens (Human), UniProt P50613); assay: CDK7/CyclinH/MAT1 kinase inhibitory activity (Caliper mobility shift)
[3] = target: CDK1/CyclinB (Homo sapiens (Human), UniProt P06493); assay: CDK1/CyclinB kinase inhibitory activity (Caliper mobility shift); settings: read-out: CDK1/Cyclin B1 IC50
[4] = target: CDK4/Cyclin D1 (Homo sapiens (Human), UniProt P11802); assay: CDK4/CyclinD1 kinase inhibitory activity (Caliper mobility shift)
[5] = target: CDK2/CyclinE1 (Homo sapiens (Human), UniProt P24941); assay: CDK2/CyclinE1 kinase inhibitory activity (Caliper mobility shift); settings: for IC50: read-out: CDK2/Cyclin El IC50
[6] = target: CDK6/CyclinD1 (Homo sapiens (Human), UniProt Q00534); assay: CDK6/CyclinD1 kinase inhibitory activity (Caliper mobility shift); settings: read-out: CDK6/Cyclin D1 IC50
CDK6/CyclinD1, sequence (Q00534 whole entry): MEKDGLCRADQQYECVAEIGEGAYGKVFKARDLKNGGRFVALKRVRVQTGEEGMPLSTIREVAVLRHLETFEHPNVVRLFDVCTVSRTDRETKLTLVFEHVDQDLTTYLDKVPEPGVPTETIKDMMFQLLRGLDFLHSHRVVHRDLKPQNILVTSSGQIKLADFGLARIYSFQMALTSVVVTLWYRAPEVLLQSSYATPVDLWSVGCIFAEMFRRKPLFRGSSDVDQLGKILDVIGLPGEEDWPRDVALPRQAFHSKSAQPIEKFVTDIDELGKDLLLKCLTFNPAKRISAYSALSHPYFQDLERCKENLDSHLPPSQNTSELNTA
CDK6/CyclinD1, sequence (P24385 whole entry partner): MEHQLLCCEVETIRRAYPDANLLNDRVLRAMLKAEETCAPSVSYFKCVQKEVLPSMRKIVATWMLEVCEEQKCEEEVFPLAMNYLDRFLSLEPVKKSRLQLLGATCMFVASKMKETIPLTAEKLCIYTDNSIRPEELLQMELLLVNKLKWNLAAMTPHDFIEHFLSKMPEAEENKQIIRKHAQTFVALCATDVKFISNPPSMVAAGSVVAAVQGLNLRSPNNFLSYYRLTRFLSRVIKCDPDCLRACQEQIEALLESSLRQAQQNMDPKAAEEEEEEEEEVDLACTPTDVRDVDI

CDK9/CyclinT1, sequence (P50750 whole entry): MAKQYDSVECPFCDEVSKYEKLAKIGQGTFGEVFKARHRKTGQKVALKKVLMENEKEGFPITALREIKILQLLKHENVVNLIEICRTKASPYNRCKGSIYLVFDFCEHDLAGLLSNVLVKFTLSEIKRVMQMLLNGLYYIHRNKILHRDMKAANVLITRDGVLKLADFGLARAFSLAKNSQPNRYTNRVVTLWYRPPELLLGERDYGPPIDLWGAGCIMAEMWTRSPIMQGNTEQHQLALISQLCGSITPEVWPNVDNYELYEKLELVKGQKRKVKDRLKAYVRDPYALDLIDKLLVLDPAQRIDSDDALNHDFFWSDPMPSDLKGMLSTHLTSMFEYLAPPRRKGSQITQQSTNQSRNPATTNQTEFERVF
CDK9/CyclinT1, sequence (O60563 whole entry partner): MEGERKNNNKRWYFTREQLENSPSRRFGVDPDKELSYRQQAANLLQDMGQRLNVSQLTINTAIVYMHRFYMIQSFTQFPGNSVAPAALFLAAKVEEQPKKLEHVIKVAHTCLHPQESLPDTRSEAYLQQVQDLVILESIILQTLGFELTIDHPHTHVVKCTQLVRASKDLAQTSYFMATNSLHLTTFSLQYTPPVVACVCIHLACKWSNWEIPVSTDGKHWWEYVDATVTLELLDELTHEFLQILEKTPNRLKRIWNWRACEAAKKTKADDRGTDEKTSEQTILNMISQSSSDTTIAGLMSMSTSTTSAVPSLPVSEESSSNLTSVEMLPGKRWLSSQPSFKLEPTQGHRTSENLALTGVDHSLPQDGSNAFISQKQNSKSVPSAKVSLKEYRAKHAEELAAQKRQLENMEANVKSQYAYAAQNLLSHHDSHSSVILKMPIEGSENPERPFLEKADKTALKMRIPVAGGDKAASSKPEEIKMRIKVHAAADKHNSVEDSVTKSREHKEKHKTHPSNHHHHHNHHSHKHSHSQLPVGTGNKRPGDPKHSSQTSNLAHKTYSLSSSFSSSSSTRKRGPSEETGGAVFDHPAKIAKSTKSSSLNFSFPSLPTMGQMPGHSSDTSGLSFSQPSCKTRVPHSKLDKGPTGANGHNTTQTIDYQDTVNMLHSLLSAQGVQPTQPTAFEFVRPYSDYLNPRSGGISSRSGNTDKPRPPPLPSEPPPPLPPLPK
CDK4/Cyclin D1, sequence (P11802 whole entry): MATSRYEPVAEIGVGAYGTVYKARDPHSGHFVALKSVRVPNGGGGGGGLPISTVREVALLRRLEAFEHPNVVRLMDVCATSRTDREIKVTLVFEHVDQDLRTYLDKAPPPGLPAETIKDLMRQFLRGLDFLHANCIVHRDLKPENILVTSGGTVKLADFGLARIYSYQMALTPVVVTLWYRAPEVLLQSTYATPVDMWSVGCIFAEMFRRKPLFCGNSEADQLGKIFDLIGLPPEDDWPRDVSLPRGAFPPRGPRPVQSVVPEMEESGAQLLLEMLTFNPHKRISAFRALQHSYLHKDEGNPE
CDK4/Cyclin D1, sequence (P24385 whole entry partner): as the sequence (P24385 whole entry partner) above
CDK1/CyclinB, sequence (P06493 whole entry): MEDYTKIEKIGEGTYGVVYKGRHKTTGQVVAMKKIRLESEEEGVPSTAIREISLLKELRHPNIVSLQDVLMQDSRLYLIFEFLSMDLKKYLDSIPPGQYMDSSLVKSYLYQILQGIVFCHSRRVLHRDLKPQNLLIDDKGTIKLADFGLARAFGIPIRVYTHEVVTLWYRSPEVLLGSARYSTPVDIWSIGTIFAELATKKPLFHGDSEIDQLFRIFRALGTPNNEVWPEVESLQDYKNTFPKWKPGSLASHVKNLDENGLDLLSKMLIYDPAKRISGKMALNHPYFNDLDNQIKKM
CDK1/CyclinB, sequence (P14635 whole entry partner): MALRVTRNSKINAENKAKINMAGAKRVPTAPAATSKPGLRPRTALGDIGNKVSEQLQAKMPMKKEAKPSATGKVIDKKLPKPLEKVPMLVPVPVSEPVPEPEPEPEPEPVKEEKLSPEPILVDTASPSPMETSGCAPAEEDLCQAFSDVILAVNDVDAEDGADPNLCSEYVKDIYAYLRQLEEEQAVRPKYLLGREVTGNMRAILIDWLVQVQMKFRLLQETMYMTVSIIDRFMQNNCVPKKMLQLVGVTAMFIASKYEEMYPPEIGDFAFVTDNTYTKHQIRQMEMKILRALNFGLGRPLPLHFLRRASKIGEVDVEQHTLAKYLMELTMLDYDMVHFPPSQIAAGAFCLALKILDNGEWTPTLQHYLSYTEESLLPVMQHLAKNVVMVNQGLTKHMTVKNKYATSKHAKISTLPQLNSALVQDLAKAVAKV
CDK7/CyclinH/MAT1, sequence (P50613 whole entry): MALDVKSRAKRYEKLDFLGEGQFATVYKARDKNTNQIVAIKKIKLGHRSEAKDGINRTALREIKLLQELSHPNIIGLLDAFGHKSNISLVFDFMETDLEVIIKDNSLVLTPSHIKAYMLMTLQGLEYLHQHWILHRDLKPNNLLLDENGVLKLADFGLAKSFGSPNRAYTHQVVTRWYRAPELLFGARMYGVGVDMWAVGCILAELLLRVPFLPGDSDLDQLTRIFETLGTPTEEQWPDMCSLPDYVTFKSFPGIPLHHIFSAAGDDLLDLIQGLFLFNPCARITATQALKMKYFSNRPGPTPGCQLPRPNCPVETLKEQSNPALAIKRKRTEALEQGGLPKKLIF
CDK7/CyclinH/MAT1, sequence (P51946 whole entry partner): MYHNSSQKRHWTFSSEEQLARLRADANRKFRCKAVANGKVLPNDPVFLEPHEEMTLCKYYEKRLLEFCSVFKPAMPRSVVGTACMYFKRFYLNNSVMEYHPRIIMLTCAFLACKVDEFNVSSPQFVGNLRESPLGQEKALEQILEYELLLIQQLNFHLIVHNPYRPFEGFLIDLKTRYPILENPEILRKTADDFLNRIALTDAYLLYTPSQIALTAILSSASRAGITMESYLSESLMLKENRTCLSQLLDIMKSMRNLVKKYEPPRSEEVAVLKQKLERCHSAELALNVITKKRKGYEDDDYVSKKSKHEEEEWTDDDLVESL
CDK7/CyclinH/MAT1, sequence (P51948 whole entry partner): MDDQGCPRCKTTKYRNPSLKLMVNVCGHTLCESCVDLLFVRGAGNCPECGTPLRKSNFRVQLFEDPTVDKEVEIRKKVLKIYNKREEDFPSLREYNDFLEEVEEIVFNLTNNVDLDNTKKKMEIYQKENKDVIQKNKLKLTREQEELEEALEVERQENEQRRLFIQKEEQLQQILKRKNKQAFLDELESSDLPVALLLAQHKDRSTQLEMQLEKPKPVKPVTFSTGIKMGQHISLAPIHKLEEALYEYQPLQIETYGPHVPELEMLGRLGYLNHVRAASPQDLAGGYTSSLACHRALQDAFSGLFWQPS

| Compound | IC50 [1] [µM] | IC50 [2] [µM] | IC50 [3] [µM] | IC50 [4] [µM] | IC50 [5] [µM] | IC50 [6] [µM] | selectivity over CDK1 ([5]; inhibiting CDK2 over CDK1) |
| --- | --- | --- | --- | --- | --- | --- | --- |
| [2H]C([2H])([2H])NS(=O)(=O)c1ccc(Nc2ncc(CC)c(OC3CCOCC3O)n2)cc1 (single isomer, unassigned) [Example 151a] | ≥ 1 | 0.1 to 1 | 0.1 to 1 | ≥ 1 | < 0.01 | 0.1 to 1 |  |
| N#Cc1cnc(Nc2ccc(S(N)(=O)=O)cc2)nc1-c1cccc(O)c1 [Example 98] | 0.01 to 0.1 | ≥ 1 | 0.01 to 0.1 | 0.01 to 0.1 | < 0.01 | 0.01 to 0.1 |  |
| N#Cc1cnc(Nc2ccc(S(N)(=O)=O)cc2)nc1N1CCCCC1 [Example 65, 4-((5-cyano-4-(piperidin-1-yl)pyrimidin-2-yl)amino) benzenesulfonamide] | 0.1 to 1 | ≥ 1 | 0.01 to 0.1 | 0.01 to 0.1 | < 0.01 | 0.1 to 1 |  |
| Cn1cc(S(=O)(=O)N2CCC(Nc3ncc(C(F)(F)F)c(OC4CCOCC4(C)O)n3)CC2)cn1 (single isomer, unassigned) [Example 125a] | 0.01 to 0.1 | < 0.01 | < 0.01 | < 0.01 | < 0.01 | < 0.01 |  |
| [2H]C([2H])([2H])NS(=O)(=O)c1ccc(Nc2ncc(C(F)(F)F)c(O[C@H]3CCCOC[C@H]3O)n2)cc1 (single isomer, unassigned) [Example 103a, cis-4-((4-((3-hydroxyoxepan-4-yl)oxy)-5-(trifluoromethyl)pyrimidin-2-yl)amino)-N-(methyl-d3)benzenesulfonamide] | 0.1 to 1 | 0.1 to 1 | 0.01 to 0.1 | 0.1 to 1 | < 0.01 | 0.1 to 1 |  |
| N#Cc1cnc(Nc2ccc(S(=O)(=O)NC3CC(F)C3)cc2)nc1OC1CCCCC1O (single isomer, unassigned) [Example 31a] | 0.1 to 1 | ≥ 1 | 0.01 to 0.1 | 0.01 to 0.1 | < 0.01 | 0.1 to 1 |  |
| N#Cc1cnc(Nc2ccc(S(N)(=O)=O)cc2)nc1OCC1CCC1 [Example 9] | 0.1 to 1 | ≥ 1 | 0.01 to 0.1 | 0.01 to 0.1 | < 0.01 | 0.01 to 0.1 | more than 30 fold |
| Cc1cnc(Nc2ccc(S(N)(=O)=O)cc2)nc1O[C@@H]1CCC[C@@H]1O (single isomer, unassigned) [Example 132a, cis-4-((4-((2-hydroxycyclopentyl)oxy)-5-methylpyrimidin-2-yl)amino)benzenesulfonamide] | 0.1 to 1 | 0.1 to 1 | 0.1 to 1 | 0.1 to 1 | < 0.01 | 0.1 to 1 |  |
| CC(C)NS(=O)(=O)c1ccc(Nc2ncc(C#N)c(OC3CCC[C@H]3O)n2)cc1 (mixture of isomers) [Example 27] | 0.1 to 1 | ≥ 1 | 0.01 to 0.1 | 0.1 to 1 | < 0.01 | 0.1 to 1 |  |
| CS(=O)(=O)N1CCC(Nc2ncc(Br)c(OC3CCCCCC3O)n2)CC1 (single isomer, unassigned) [Example 145b] | 0.1 to 1 | 0.01 to 0.1 | 0.01 to 0.1 | 0.01 to 0.1 | < 0.01 | 0.01 to 0.1 |  |
| CC1(O)CCC(F)(F)CC1Oc1nc(NC2CCN(S(C)(=O)=O)CC2)ncc1C#N (single isomer, unassigned) [Example 46b] | 0.01 to 0.1 | < 0.01 | < 0.01 | < 0.01 | < 0.01 | < 0.01 |  |
| [2H]C([2H])([2H])NS(=O)(=O)c1ccc(Nc2ncc(C#N)c(OC3CCCOCC3)n2)cc1 (single isomer, unassigned) [Example 33a] | 0.1 to 1 | ≥ 1 | 0.01 to 0.1 | 0.01 to 0.1 | < 0.01 | 0.1 to 1 |  |
| CC1(O)CC(F)(F)CC1Oc1nc(NC2CCN(S(=O)(=O)CC3CC3)CC2)ncc1C#N (single isomer, unassigned) [Example 44b] | 0.1 to 1 | 0.01 to 0.1 | 0.01 to 0.1 | 0.01 to 0.1 | < 0.01 | < 0.01 |  |
| NS(=O)(=O)c1ccc(Nc2ncc(Br)c(OC3CCCC3O)n2)cc1 (single isomer, unassigned) [Example 141a] | 0.01 to 0.1 | 0.1 to 1 | 0.01 to 0.1 | 0.01 to 0.1 | < 0.01 | 0.01 to 0.1 |  |
| NS(=O)(=O)c1ccc(Nc2ncc(C(F)(F)F)c(OC3CCOCC3O)n2)cc1 (single isomer, unassigned) [Example 114a] | 0.01 to 0.1 | 0.1 to 1 | 0.01 to 0.1 | 0.1 to 1 | < 0.01 | 0.1 to 1 |  |
| [2H]C1([2H])CC(O)C(Oc2nc(Nc3ccc(S(=O)(=O)NC([2H])([2H])[2H])cc3)ncc2C(F)(F)F)C1 (single isomer, unassigned) [Example 110a] | 0.1 to 1 | 0.1 to 1 | 0.01 to 0.1 | 0.1 to 1 | < 0.01 | 0.01 to 0.1 |  |
| N#Cc1cnc(Nc2ccc(S(N)(=O)=O)cc2)nc1N1CCCCCC1 [Example 68] | 0.01 to 0.1 | ≥ 1 | 0.01 to 0.1 | 0.01 to 0.1 | < 0.01 | 0.01 to 0.1 |  |
| CC1(O)CC(F)(F)CCC1Oc1nc(NC2CCN(S(C)(=O)=O)CC2)ncc1C#N (single isomer, unassigned) [Example 47a] | 0.1 to 1 | 0.01 to 0.1 | 0.01 to 0.1 | < 0.01 | < 0.01 | < 0.01 |  |
| N#Cc1cnc(Nc2ccc(S(N)(=O)=O)cc2)nc1N1CCC(O)CC1 [Example 82] | 0.1 to 1 | ≥ 1 | 0.1 to 1 | 0.1 to 1 | 0.01 to 0.1 | 0.1 to 1 |  |
| Cn1cc(S(=O)(=O)N2CCC(Nc3ncc(C#N)c(OCC4(C)CCC4)n3)CC2)cn1 [Example 60] | 0.1 to 1 | 0.1 to 1 | < 0.01 | < 0.01 | < 0.01 | 0.01 to 0.1 |  |
| CC(C)NS(=O)(=O)c1ccc(Nc2ncc(Cl)c(OC3CCCC3O)n2)cc1 (single isomer, unassigned) [Example 138a] | 0.1 to 1 | 0.1 to 1 | 0.01 to 0.1 | 0.1 to 1 | < 0.01 | 0.1 to 1 |  |
| CC1(O)CCCCC1Oc1nc(Nc2ccc(S(N)(=O)=O)cc2)ncc1C#N (single isomer, unassigned) [Example 24a] | < 0.01 | < 0.01 | < 0.01 | < 0.01 | < 0.01 | < 0.01 |  |
| CN1CCC(NS(=O)(=O)c2ccc(Nc3ncc(Cl)c(OC4CCCC4O)n3)cc2)CC1 (single isomer, unassigned) [Example 139a] | 0.1 to 1 | 0.1 to 1 | 0.01 to 0.1 | 0.1 to 1 | < 0.01 | 0.01 to 0.1 |  |
| [2H]C([2H])([2H])NS(=O)(=O)c1ccc(Nc2ncc(C(F)(F)F)c(OC3COCCC3O)n2)cc1 (single isomer, unassigned) [Example 117a] | 0.1 to 1 | 0.1 to 1 | 0.01 to 0.1 | 0.1 to 1 | < 0.01 | 0.1 to 1 |  |
